{"source": "patent US4661294A", "about": "“Biologically active 1-thio derivatives of vitamin D” (The General Hospital Corporation, priority 1985, dated 1987)", "key": {"[1]": {"settings": "literature reports; cited from earlier work"}, "[2]": {"test_system": "human fibroblasts", "experiment": "human fibroblast cell proliferation", "format": "cell-based", "settings": "for effect on the inhibitory effect of 1-alpha,25-dihydroxyvitamin D3 on cell generation: added to the 1-alpha,25-dihydroxy compound", "experimental": "FIG. 4 is a graph comparing the effects of ethanol ( ), ethanol plus 1-alpha,25-dihydroxyvitamin D3 ( ), and 1-beta-thio-25-hydroxyvitamin D3 and 1-alpha,25-dihydroxyvitamin D3 ( ) on human fibroblast cell proliferation.\nTo confirm this, the effects of various compounds on cell proliferation rates were studied, using human fibroblasts to evaluate activity. Human fibroblasts were prepared as described by Clemens, J. Clin. Endocrinol. Met., 56: 197 (1983). In the study, 2.5×10^5 cells, in quadruplicate, were exposed to (a) 95% ethanol; (b) ethanol plus 1-alpha-25-dihydroxyvitamin D3 ( ); or (c) 1-beta-thio-25-hydroxyvitamin D3 plus 1-alpha, 25-dihydroxyvitamin D3 ( ). As may be seen from FIG. 4, the 1-alpha-25-dihydroxy-vitamin D3 inhibited cell generation by about 30% ( ). […] Further, the 1-thio compound alone had no effect on cell generation time (data not shown)."}, "[3]": {"biological_target": "T1, chick cytosolic receptor (1,25-dihydroxyvitamin receptor site) (Gallus gallus, UniProt O42392)", "T1 sequence (O42392 1-451)": "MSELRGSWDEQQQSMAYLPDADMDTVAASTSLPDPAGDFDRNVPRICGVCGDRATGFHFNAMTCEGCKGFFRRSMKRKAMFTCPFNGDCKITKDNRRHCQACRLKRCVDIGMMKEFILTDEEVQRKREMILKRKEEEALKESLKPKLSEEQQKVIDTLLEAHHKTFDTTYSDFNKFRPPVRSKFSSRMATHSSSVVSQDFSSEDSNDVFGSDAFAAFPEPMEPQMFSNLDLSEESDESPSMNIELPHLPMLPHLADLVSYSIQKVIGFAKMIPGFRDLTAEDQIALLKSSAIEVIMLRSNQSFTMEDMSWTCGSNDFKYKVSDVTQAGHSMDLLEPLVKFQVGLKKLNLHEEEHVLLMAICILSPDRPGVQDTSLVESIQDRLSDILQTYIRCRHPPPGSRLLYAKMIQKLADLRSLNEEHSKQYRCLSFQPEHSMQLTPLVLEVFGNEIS", "experiment": "competition with 3H-1,25-dihydroxyvitamin D3 for receptor site (procedure of Eisman et al.)", "format": "binding", "from_the_text": "FIG. 3 is a graph comparing the binding characteristics of 1-alpha,25-dihydroxyvitamin D3 ( ) and 1-beta-thio-25-hydroxyvitamin D3 (Δ) using chick cytosolic receptor.\nThus, the 1-beta-thio-25-hydroxyvitamin D3 can be used as a biologically active analogue of the natural compound."}}}
{"smiles": "C=C1/C(=C\\C=C2/CCC[C@]3(C)[C@@H]([C@H](C)CCCC(C)(C)F)CC[C@@H]23)C[C@@H](O)C[C@@H]1F", "note": "[1-alpha-25-difluoro vitamin D3]", "values": [{"measurement": "biological activity", "setting": "[1]", "result": "biologically inert"}]}
{"smiles": "C=C1/C(=C\\C=C2/CCC[C@]3(C)[C@@H]([C@H](C)CCCC(C)(C)O)CC[C@@H]23)C[C@@H](O)C[C@@H]1O", "note": "[1-alpha-25-dihydroxy-vitamin D3, 1-alpha,25-dihydroxyvitamin D3, reference compound]", "values": [{"measurement": "inhibition of cell generation", "setting": "[2]; human fibroblasts, 2.5×10^5 cells, FIG. 4", "result": "about 30%"}]}
{"smiles": "C=C1/C(=C\\C=C2/CCC[C@]3(C)[C@@H]([C@H](C)CCCC(C)(C)O)CC[C@@H]23)C[C@@H](O)C[C@H]1S", "note": "[1-beta-thio-25-hydroxyvitamin D3, 1-beta-thio-25-hydroxy vitamin D3]", "values": [{"measurement": "effect on the inhibitory effect of 1-alpha,25-dihydroxyvitamin D3 on cell generation", "setting": "[2]; human fibroblasts, FIG. 4", "result": "blocked the inhibitory effect"}, {"measurement": "effect on the inhibitory effect of 1-alpha,25-dihydroxyvitamin D3 on cell generation", "setting": "[2]; human fibroblasts, FIG. 4, listed as 1-beta-thio-hydrovitamin D3", "result": "blocks the ability of the 1,25-dihydroxy compound from affecting in vitro fibroblast cell division"}, {"measurement": "effect on cell generation time", "setting": "[2]; compound alone (data not shown)", "result": "no effect"}, {"measurement": "competition with 3H-1,25-dihydroxyvitamin D3 for the receptor site / recognition by the cytosol receptor site", "setting": "[3]; FIG. 3", "result": "able to compete"}, {"measurement": "competition with 3H-1,25-dihydroxyvitamin D3 for the receptor site / recognition by the cytosol receptor site", "setting": "[3]; FIG. 3, listed as 1-beta-thio-hydrovitamin D3", "result": "recognized by the cytosol receptor site"}]}
{"smiles": "C=C1/C(=C\\C=C2/CCC[C@]3(C)[C@@H]([C@H](C)CCCC(C)C)CC[C@@H]23)C[C@@H](O)CC1F", "note": "(some centres unmarked) [1-fluoro vitamin D3]", "values": [{"measurement": "biological activity", "setting": "[1]", "result": "possess biological activity"}]}
